Results as given in ChEMBL document CHEMBL5523701, “Structure-based discovery of small molecule inhibitors of FKBP51-Hsp90 protein-protein interaction” (Eur J Med Chem, 2024).
pIC50, pKd: −log10 of the molar value.

Assays:
[1] = target: T1, Serine/threonine-protein phosphatase 5 (Homo sapiens, UniProt P53041); assay: Inhibition of GST-tagged human PP5 expressed in Escherichia coli BL21 (DE3) using NH2-EDASRMEEVD-COOH peptide as substrate preincubated for 15 mins followed by substrate addition measured after 15 mins by Alpha Screen assay
T1 sequence (P53041 whole entry): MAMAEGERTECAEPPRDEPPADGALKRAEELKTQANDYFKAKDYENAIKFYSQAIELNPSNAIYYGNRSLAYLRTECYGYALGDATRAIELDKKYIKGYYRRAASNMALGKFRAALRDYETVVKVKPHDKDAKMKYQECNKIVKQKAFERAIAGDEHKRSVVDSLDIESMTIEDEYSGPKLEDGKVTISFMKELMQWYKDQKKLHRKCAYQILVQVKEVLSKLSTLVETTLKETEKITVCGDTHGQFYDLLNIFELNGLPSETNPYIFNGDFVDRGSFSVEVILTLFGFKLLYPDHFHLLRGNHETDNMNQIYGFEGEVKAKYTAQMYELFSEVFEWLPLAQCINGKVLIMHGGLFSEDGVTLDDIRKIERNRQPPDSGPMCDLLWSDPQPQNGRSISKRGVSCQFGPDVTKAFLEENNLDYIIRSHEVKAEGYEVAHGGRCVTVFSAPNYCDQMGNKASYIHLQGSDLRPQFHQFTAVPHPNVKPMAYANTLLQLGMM

[2] = target: T2, Aryl-hydrocarbon-interacting protein-like 1 (Homo sapiens, UniProt Q9NZN9); assay: Inhibition of GST-tagged human AIPL1 expressed in Escherichia coli BL21 (DE3) using NH2-EDASRMEEVD-COOH peptide as substrate preincubated for 15 mins followed by substrate addition measured after 15 mins by Alpha Screen assay
T2 sequence (Q9NZN9 whole entry): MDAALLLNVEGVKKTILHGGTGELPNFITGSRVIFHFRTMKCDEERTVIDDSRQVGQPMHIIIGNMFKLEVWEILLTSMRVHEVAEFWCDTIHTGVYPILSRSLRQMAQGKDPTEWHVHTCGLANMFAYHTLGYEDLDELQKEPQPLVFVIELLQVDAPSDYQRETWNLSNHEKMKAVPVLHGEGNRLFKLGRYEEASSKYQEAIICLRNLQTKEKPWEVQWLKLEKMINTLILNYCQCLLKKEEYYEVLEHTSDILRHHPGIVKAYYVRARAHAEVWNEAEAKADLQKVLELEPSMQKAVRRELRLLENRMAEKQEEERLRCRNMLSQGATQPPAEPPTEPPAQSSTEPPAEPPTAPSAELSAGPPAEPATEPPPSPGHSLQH

[3] = target: Peptidyl-prolyl cis-trans isomerase D (Homo sapiens, UniProt Q08752); assay: Inhibition of GST-tagged human CYP40 expressed in Escherichia coli BL21 (DE3) using NH2-EDASRMEEVD-COOH peptide as substrate preincubated for 15 mins followed by substrate addition measured after 15 mins by Alpha Screen assay
Sequence of Peptidyl-prolyl cis-trans isomerase D (Q08752 whole entry): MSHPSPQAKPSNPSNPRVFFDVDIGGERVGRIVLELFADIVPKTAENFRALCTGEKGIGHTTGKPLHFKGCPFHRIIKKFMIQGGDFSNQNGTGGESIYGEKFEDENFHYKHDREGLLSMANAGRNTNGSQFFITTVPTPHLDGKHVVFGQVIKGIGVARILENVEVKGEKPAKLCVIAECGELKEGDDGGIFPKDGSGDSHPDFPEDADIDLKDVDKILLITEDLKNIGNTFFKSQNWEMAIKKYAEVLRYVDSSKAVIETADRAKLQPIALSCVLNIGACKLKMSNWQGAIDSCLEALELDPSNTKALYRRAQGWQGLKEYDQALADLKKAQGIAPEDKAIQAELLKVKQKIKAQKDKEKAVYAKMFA

[4] = target: T3, Peptidyl-prolyl cis-trans isomerase FKBP4 (Homo sapiens, UniProt Q02790); assay: Inhibition of GST-tagged human FKBP52 expressed in Escherichia coli BL21 (DE3) using NH2-EDASRMEEVD-COOH peptide as substrate preincubated for 15 mins followed by substrate addition measured after 15 mins by Alpha Screen assay
T3 sequence (Q02790 whole entry): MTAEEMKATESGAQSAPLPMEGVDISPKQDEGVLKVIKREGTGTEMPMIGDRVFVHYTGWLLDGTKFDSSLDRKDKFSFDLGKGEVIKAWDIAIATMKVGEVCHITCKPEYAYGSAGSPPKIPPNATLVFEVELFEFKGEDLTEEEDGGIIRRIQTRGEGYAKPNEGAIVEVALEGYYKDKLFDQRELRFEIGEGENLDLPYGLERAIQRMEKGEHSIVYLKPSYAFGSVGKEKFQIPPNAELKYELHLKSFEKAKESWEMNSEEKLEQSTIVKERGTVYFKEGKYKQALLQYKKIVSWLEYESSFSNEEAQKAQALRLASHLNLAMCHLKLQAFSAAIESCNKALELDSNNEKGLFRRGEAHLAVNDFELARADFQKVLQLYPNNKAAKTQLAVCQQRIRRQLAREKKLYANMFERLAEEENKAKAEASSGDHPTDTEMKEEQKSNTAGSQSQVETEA

[5] = Solubility of compound in cell culture media upto 30 uM; format: physicochemical
HEK293 = assay: Induction of cell proliferation in HEK293 cells at 10 uM measured for 1 to 4 hrs by MTT assay relative to control; format: functional, Homo sapiens; settings: time 1-4 hrs
[6] = target: T3, Peptidyl-prolyl cis-trans isomerase FKBP4; assay: Binding affinity to GST-tagged human FKBP52 expressed in Escherichia coli BL21 (DE3) immobilized in CM7 sensor chip assessed as equilibrium dissociation constant by SPR analysis
[7] = target: T4, Peptidyl-prolyl cis-trans isomerase FKBP5 (Homo sapiens, UniProt Q13451); assay: Binding affinity to GST-tagged human FKBP51 expressed in Escherichia coli BL21 (DE3) immobilized in CM7 sensor chip assessed as equilibrium dissociation constant by SPR analysis
T4 sequence (Q13451 whole entry): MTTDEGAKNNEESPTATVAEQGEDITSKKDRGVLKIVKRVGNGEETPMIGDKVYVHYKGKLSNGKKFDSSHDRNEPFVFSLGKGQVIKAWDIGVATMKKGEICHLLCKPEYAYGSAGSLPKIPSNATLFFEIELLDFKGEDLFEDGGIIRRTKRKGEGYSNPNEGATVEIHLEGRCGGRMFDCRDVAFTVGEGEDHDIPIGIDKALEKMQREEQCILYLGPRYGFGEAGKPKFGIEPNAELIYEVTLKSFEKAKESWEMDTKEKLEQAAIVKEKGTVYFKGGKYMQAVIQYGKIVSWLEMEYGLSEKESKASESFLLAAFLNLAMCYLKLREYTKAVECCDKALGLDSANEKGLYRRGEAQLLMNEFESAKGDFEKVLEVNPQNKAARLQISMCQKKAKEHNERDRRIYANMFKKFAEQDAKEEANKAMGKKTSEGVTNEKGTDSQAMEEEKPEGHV

[8] = target: T4, Peptidyl-prolyl cis-trans isomerase FKBP5; assay: Inhibition of GST-tagged human FKBP51 expressed in Escherichia coli BL21 (DE3) using NH2-EDASRMEEVD-COOH peptide as substrate preincubated for 15 mins followed by substrate addition measured after 15 mins by Alpha Screen assay
[9] = Inhibition of GST-tagged FKBP51 N381Y mutant (unknown origin) using NH2-EDASRMEEVD-COOH peptide as substrate preincubated for 15 mins followed by substrate addition measured after 15 mins by Alpha Screen assay; design: species or system Homo sapiens

SMILES: Cc1sc(NC(=O)CCCC(=O)Nc2sc(C)c(C)c2C(N)=O)c(C(N)=O)c1C
- pIC50 [1]: 5.70
- pIC50 [2]: 5.70
- pIC50 [3]: 5.82
- pIC50 [4]: 5.30

SMILES: COC(=O)c1c(NC(=O)CSc2nnc(-c3ccco3)c(-c3ccco3)n2)sc(C)c1C
- pIC50 [1]: 5.60
- solubility [5]: Soluble
- Activity (HEK293): 10%
- pKd [6]: 3.13
- pKd [7]: 4.32
- pIC50 [8]: 5.82
- pIC50 [9]: 6.30
- pIC50 [4]: 5.52
